According to US12433836B2, “Parenterally administered immune enhancing drugs” (ARCUS BIOSCIENCES, INC., priority 2018, dated 2025):
Read-outs that look alike come from different tables or passages of the source. One block for each compound: values may come before it.

Tests used:
[1] = tested on: squamous cell carcinoma of the head and neck; settings: recurrent or metastatic squamous cell carcinoma of the head and neck; cited from earlier work
[2] = Pharmacokinetics after single IV bolus dose in monkeys
Protocol: (§1) At the designated time points, blood was collected into tubes containing potassium EDTA and stored on ice until processed by centrifugation. The resultant plasma was stored in a freezer maintained at approximately −80° C.
(§2) Plasma samples were prepared by protein precipitation. An aliquot of 30 to 50 μL sample was mixed with acetonitrile containing an internal standard. The mixture was vortexed and then centrifuged. The resultant supernatant was directly analyzed by a sensitive and specific analytical procedure. Analytes were separated by liquid chromatography (LC), and detected by tandem mass spectrometry (MS/MS). The lower limit of quantitation (LLOQ) was 1.0 to 5.0 ng/mL.

[3] = Pharmacokinetics after single IV bolus dose in mice
Protocol: as §1, §2

[4] = Pharmacokinetics after single IV bolus dose in dogs; settings: for CL: Dog, single dose IV bolus, mean noncompartmental; for volume of distribution at steady state, in words: dogs, single IV dose; for Vd / half-life: male, beagle, dog, iv
Protocol: as §1, §2

[5] = Pharmacokinetics after single IV bolus dose in rats
Protocol: as §1, §2

[6] = Pharmacokinetics in preclinical species, summary across species; format: in vivo, mice, rats, dogs, monkeys; settings: single IV dose; for clearance (CL), in words: all preclinical species; for half-life: both sexes, CD-1 (mouse), Sprague-Dawley (rat), beagle (dog), mouse, rat, dog, cynomolgus monkey, plasma, range over preclinical species, read-out: terminal half-lives; for volume of distribution at steady state, in words: mice, rats and monkeys
Protocol: Plasma samples were prepared by protein precipitation. […] The mixture was vortexed and then centrifuged.
Compound 1 and Compound 2 volume of distribution at steady (Vu) was low in mice, rats and monkeys, but moderate-to-high in dogs. The terminal half-lives (Ti2) of Compound 1 and Compound 2 ranged from 3.5 to 41 hours, and 6.5 to 34 hours, respectively.

bladder cancer = settings: cited from earlier work
[7] = Monkey, single dose IV bolus, mean noncompartmental
[8] = male, cynomolgus monkey, plasma, iv
[9] = female, CD-1, mouse, plasma, iv
[10] = Rat, single dose IV bolus, mean noncompartmental
[11] = male, Sprague-Dawley, rat, plasma, iv
[12] = female, CD-1, mouse, in vivo, iv

Compound: nivolumab: PD-1 blocking antibody
estimated 1-year survival rate versus standard chemotherapy [1]: more than two-fold higher

CL [2, 7]: 0.0417 mL/min/kg
Vd [2, 8]: 0.097 L/kg
half-life [2, 8]: 41 h
CL ([3]; Mouse, single dose IV bolus, mean noncompartmental): 0.417 mL/min/kg
Vd [3, 9]: 0.12 L/kg
half-life [3, 9]: 3.5 h
CL [4]: 0.833 mL/min/kg
volume of distribution at steady state, in words [4]: moderate-to-high
Vd ([4]; plasma): 1.3 L/kg
half-life ([4]; plasma): 21 h
CL [5, 10]: 0.333 mL/min/kg
T1/2 [5, 10]: 5.3 h
Vd [5, 11]: 0.12 L/kg
clearance (CL), in words [6]: low
half-life [6]: 3.5 to 41 h
volume of distribution at steady state, in words [6]: low
Compound: C[C@H](Nc1cc(Cl)nc2c1cnn2[C@@H]1O[C@H](COP(=O)(O)CP(=O)(O)O)[C@@H](O)[C@H]1O)c1ccccc1F [Compound 1]

Compound: C[C@H](Nc1cc(Cl)nc2c1cnn2[C@@H]1O[C@H](COP(=O)(O)CP(=O)(O)O)[C@@H](O)[C@H]1O)c1ccc(F)cc1 [Compound 2]
CL [2, 7]: 0.0283 mL/min/kg
T1/2 [2, 7]: 34 h
Vd ([2]; male, cynomolgus monkey, in vivo, iv): 0.078 L/kg
Vd [3, 12]: 0.11 L/kg
clearance [3, 12]: 0.25 mL/min/kg
half-life [3, 12]: 6.5 h
CL [4]: 0.567 mL/min/kg
volume of distribution at steady state, in words [4]: moderate-to-high
Vd ([4]; in vivo): 0.63 L/kg
half-life ([4]; in vivo): 15 h
T1/2 [5, 10]: 9.6 h
Vd ([5]; male, Sprague-Dawley, rat, in vivo, iv): 0.12 L/kg
clearance [5, 11]: 0.155 mL/min/kg
clearance (CL), in words [6]: low
half-life [6]: 6.5 to 34 h
volume of distribution at steady state, in words [6]: low

Compound: atezolizumab: the first approved anti-PD-L1 therapy
response rate (bladder cancer; all patients): 15%
response rate (bladder cancer; patients with more PD-L1-positive immune cells): 27%
